Measured values published in PubChem BioAssay (NCI).
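Cells were grown in 96-well plates and exposed to each compound for 48 hours at five concentrations; endpoints were interpolated linearly between bracketing concentrations, or set to the highest concentration if not reached. GI50 = concentration required for 50% inhibition of growth. Definition used: TGI = concentration required for complete inhibition of growth.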

Columns and labels:
Assay in all cases: NCI tumour cell line growth inhibition, 48 h
786-0 renal = system: 786-0 renal
A498 renal = system: A498 renal
A549 NSCLC = system: A549 NSCLC
ACHN renal = system: ACHN renal
BT-549 breast = system: BT-549 breast
CAKI-1 renal = system: CAKI-1 renal
CCRF-CEM leukemia = system: CCRF-CEM leukemia
COLO 205 colon = system: COLO 205 colon
DU-145 prostate = system: DU-145 prostate
HCC-2998 colon = system: HCC-2998 colon
HCT-116 colon = system: HCT-116 colon
HCT-15 colon = system: HCT-15 colon
HL-60(TB) leukemia = system: HL-60(TB) leukemia
HOP-62 NSCLC = system: HOP-62 NSCLC
HOP-92 NSCLC = system: HOP-92 NSCLC
HS 578T breast = system: HS 578T breast
HT29 colon = system: HT29 colon
IGROV1 ovarian = system: IGROV1 ovarian
K-562 leukemia = system: K-562 leukemia
KM12 colon = system: KM12 colon
LOX IMVI melanoma = system: LOX IMVI melanoma
M14 melanoma = system: M14 melanoma
MALME-3M melanoma = system: MALME-3M melanoma
MCF7 breast = system: MCF7 breast
MDA-MB-231 breast = system: MDA-MB-231 breast
MDA-MB-435 = system: MDA-MB-435
MOLT-4 leukemia = system: MOLT-4 leukemia
NCI-H226 lung = system: NCI-H226 lung
NCI-H23 lung = system: NCI-H23 lung
NCI-H460 lung = system: NCI-H460 lung
NCI-H522 lung = system: NCI-H522 lung
NCI/ADR-RES ovarian = system: NCI/ADR-RES ovarian
OVCAR-3 ovarian = system: OVCAR-3 ovarian
OVCAR-4 ovarian = system: OVCAR-4 ovarian
OVCAR-5 ovarian = system: OVCAR-5 ovarian
OVCAR-8 ovarian = system: OVCAR-8 ovarian
PC-3 prostate = system: PC-3 prostate
RXF 393 renal = system: RXF 393 renal
SF-268 CNS = system: SF-268 CNS
SF-539 CNS = system: SF-539 CNS
SK-MEL-2 melanoma = system: SK-MEL-2 melanoma
SK-MEL-28 melanoma = system: SK-MEL-28 melanoma
SK-MEL-5 melanoma = system: SK-MEL-5 melanoma
SK-OV-3 ovarian = system: SK-OV-3 ovarian
SN12C renal = system: SN12C renal
SNB-19 CNS = system: SNB-19 CNS
SNB-75 CNS = system: SNB-75 CNS
SR leukemia = system: SR leukemia
SW-620 colon = system: SW-620 colon
T-47D breast = system: T-47D breast
TK-10 renal = system: TK-10 renal
U251 CNS = system: U251 CNS
UACC-257 melanoma = system: UACC-257 melanoma
UACC-62 melanoma = system: UACC-62 melanoma
UO-31 renal = system: UO-31 renal
EKVX NSCLC = system: EKVX NSCLC
SF-295 CNS = system: SF-295 CNS

## CCOC(=O)N1C/C(=C/c2ccc(Cl)cc2)C(=O)/C(=C/c2ccc(Cl)cc2)C1
786-0 renal
  GI50: 2.08 µM
  TGI: 4.35 µM
A498 renal
  GI50: 12 µM
  TGI: 26.4 µM
A549 NSCLC
  GI50: 3.06 µM
  TGI: 20.7 µM
ACHN renal
  GI50: 3.04 µM
  TGI: 10.5 µM
BT-549 breast
  GI50: 2.41 µM
  TGI: 5.6 µM
CAKI-1 renal
  GI50: 4.57 µM
  TGI: > 100 µM
CCRF-CEM leukemia
  GI50: 3.24 µM
  TGI: > 100 µM
COLO 205 colon
  GI50: 2.96 µM
  TGI: 8.83 µM
DU-145 prostate
  GI50: 4.36 µM
  TGI: 15.9 µM
HCC-2998 colon
  GI50: 2.32 µM
  TGI: 5.29 µM
HCT-116 colon
  GI50: 1.04 µM
  TGI: 2.72 µM
HCT-15 colon
  GI50: 2.18 µM
  TGI: 7.24 µM
HL-60(TB) leukemia
  GI50: 7.04 µM
  TGI: 88.7 µM
HOP-62 NSCLC
  GI50: 2.47 µM
  TGI: 5.72 µM
HOP-92 NSCLC
  GI50: 10.5 µM
  TGI: 32 µM
HS 578T breast
  GI50: 3.94 µM
  TGI: 41.8 µM
HT29 colon
  GI50: 1.97 µM
  TGI: 3.95 µM
IGROV1 ovarian
  GI50: 3.52 µM
  TGI: 13 µM
K-562 leukemia
  GI50: 3.34 µM
  TGI: > 100 µM
KM12 colon
  GI50: 2.1 µM
  TGI: 4.39 µM
LOX IMVI melanoma
  GI50: 1.89 µM
  TGI: 4.22 µM
M14 melanoma
  GI50: 4.23 µM
  TGI: 17.8 µM
MALME-3M melanoma
  GI50: 15.4 µM
  TGI: 32 µM
MCF7 breast
  GI50: 1.55 µM
  TGI: 8.04 µM
MDA-MB-231 breast
  GI50: 2.88 µM
  TGI: 9.37 µM
MDA-MB-435
  GI50: 3.33 µM
  TGI: 13 µM
MOLT-4 leukemia
  GI50: 4.65 µM
  TGI: > 100 µM
NCI-H226 lung
  GI50: 16.9 µM
  TGI: 52 µM
NCI-H23 lung
  GI50: 5.37 µM
  TGI: 27.7 µM
NCI-H460 lung
  GI50: 3.86 µM
  TGI: 16.4 µM
NCI-H522 lung
  GI50: 9.77 µM
  TGI: 22.4 µM
NCI/ADR-RES ovarian
  GI50: 7.45 µM
  TGI: 95.6 µM
OVCAR-3 ovarian
  GI50: 2.22 µM
  TGI: 4.57 µM
OVCAR-4 ovarian
  GI50: 3.35 µM
  TGI: 14.4 µM
OVCAR-5 ovarian
  GI50: 4.43 µM
  TGI: 19.8 µM
OVCAR-8 ovarian
  GI50: 3.81 µM
  TGI: 86.4 µM
PC-3 prostate
  GI50: 2.94 µM
  TGI: 15 µM
RXF 393 renal
  GI50: 1.69 µM
  TGI: 3.34 µM
SF-268 CNS
  GI50: 3.86 µM
  TGI: 14.7 µM
SF-539 CNS
  GI50: 2.67 µM
  TGI: 7.81 µM
SK-MEL-2 melanoma
  GI50: 19.6 µM
  TGI: 40.9 µM
SK-MEL-28 melanoma
  GI50: 3.43 µM
  TGI: 12.7 µM
SK-MEL-5 melanoma
  GI50: 3.43 µM
  TGI: 13.1 µM
SK-OV-3 ovarian
  GI50: 5.42 µM
  TGI: 20.8 µM
SN12C renal
  GI50: 2.84 µM
  TGI: 11.7 µM
SNB-19 CNS
  GI50: 4.66 µM
  TGI: 18.4 µM
SNB-75 CNS
  GI50: 3.15 µM
  TGI: 16.2 µM
SR leukemia
  GI50: 1.49 µM
  TGI: > 100 µM
SW-620 colon
  GI50: 2.06 µM
  TGI: 4.73 µM
T-47D breast
  GI50: 3.74 µM
  TGI: 35.5 µM
TK-10 renal
  GI50: 5.01 µM
  TGI: 17.6 µM
U251 CNS
  GI50: 1.98 µM
  TGI: 4.18 µM
UACC-257 melanoma
  GI50: 8.54 µM
  TGI: 23.9 µM
UACC-62 melanoma
  GI50: 3 µM
  TGI: 14.3 µM
UO-31 renal
  GI50: 2.36 µM
  TGI: 7.2 µM

## COc1ccc(-c2cc(-c3ccccc3)nc(SCCCC(=O)NO)n2)cc1OC
786-0 renal
  GI50: 1.28 µM
  TGI: 5.02 µM
A498 renal
  GI50: 0.345 µM
  TGI: 1.72 µM
A549 NSCLC
  GI50: 2.06 µM
  TGI: 7.05 µM
ACHN renal
  GI50: 0.41 µM
  TGI: 1.81 µM
BT-549 breast
  GI50: 3.32 µM
  TGI: 12.4 µM
CAKI-1 renal
  GI50: 0.452 µM
  TGI: 2.83 µM
CCRF-CEM leukemia
  GI50: 0.398 µM
  TGI: 11.1 µM
COLO 205 colon
  GI50: 2.1 µM
  TGI: 5.95 µM
DU-145 prostate
  GI50: 1.41 µM
  TGI: 6.85 µM
EKVX NSCLC
  GI50: 1.18 µM
  TGI: 8.6 µM
HCC-2998 colon
  GI50: 1.44 µM
  TGI: 3.59 µM
HCT-116 colon
  GI50: 0.701 µM
  TGI: 10 µM
HCT-15 colon
  GI50: 0.406 µM
  TGI: 2.62 µM
HL-60(TB) leukemia
  GI50: 3.24 µM
  TGI: 11.7 µM
HOP-62 NSCLC
  GI50: 0.626 µM
  TGI: 3.38 µM
HOP-92 NSCLC
  GI50: 1.14 µM
  TGI: 3.99 µM
HS 578T breast
  GI50: 1.41 µM
  TGI: 9.44 µM
HT29 colon
  GI50: 2.08 µM
  TGI: 7.06 µM
IGROV1 ovarian
  GI50: 1.64 µM
  TGI: 5.05 µM
K-562 leukemia
  GI50: 0.812 µM
  TGI: > 100 µM
KM12 colon
  GI50: 2.83 µM
  TGI: 11 µM
LOX IMVI melanoma
  GI50: 1.07 µM
  TGI: 2.44 µM
M14 melanoma
  GI50: 1.02 µM
  TGI: 2.82 µM
MALME-3M melanoma
  GI50: 0.761 µM
  TGI: 5.71 µM
MCF7 breast
  GI50: 2.3 µM
  TGI: 9.63 µM
MDA-MB-231 breast
  GI50: 1.56 µM
  TGI: 8.27 µM
MDA-MB-435
  GI50: 1.74 µM
  TGI: 6.28 µM
MOLT-4 leukemia
  GI50: 0.832 µM
  TGI: 11.4 µM
NCI-H226 lung
  GI50: 1.69 µM
  TGI: 5.54 µM
NCI-H23 lung
  GI50: 1.57 µM
  TGI: 4.8 µM
NCI-H460 lung
  GI50: 0.621 µM
  TGI: 9.81 µM
NCI-H522 lung
  GI50: 1.32 µM
  TGI: 5.36 µM
NCI/ADR-RES ovarian
  GI50: 0.793 µM
  TGI: 4.35 µM
OVCAR-3 ovarian
  GI50: 1.32 µM
  TGI: 5.36 µM
OVCAR-4 ovarian
  GI50: 1.68 µM
  TGI: 7.76 µM
OVCAR-5 ovarian
  GI50: 1.16 µM
  TGI: 5.43 µM
OVCAR-8 ovarian
  GI50: 0.49 µM
  TGI: 11.9 µM
PC-3 prostate
  GI50: 1.39 µM
  TGI: 5.62 µM
RXF 393 renal
  GI50: 1.01 µM
  TGI: 2.78 µM
SF-268 CNS
  GI50: 2.15 µM
  TGI: 5.68 µM
SF-295 CNS
  GI50: 0.887 µM
  TGI: 2.51 µM
SF-539 CNS
  GI50: 1.35 µM
  TGI: 3.38 µM
SK-MEL-2 melanoma
  GI50: 1.76 µM
  TGI: 7.39 µM
SK-MEL-28 melanoma
  GI50: 1.23 µM
  TGI: 3.66 µM
SK-MEL-5 melanoma
  GI50: 0.631 µM
  TGI: 2.09 µM
SK-OV-3 ovarian
  GI50: 1.69 µM
  TGI: 5.05 µM
SN12C renal
  GI50: 1.54 µM
  TGI: 6.15 µM
SNB-19 CNS
  GI50: 2.29 µM
  TGI: 10.9 µM
SNB-75 CNS
  GI50: 1.09 µM
  TGI: 4.51 µM
SR leukemia
  GI50: 0.339 µM
  TGI: 20.4 µM
SW-620 colon
  GI50: 0.539 µM
  TGI: 11.3 µM
T-47D breast
  GI50: 0.824 µM
  TGI: 9.39 µM
TK-10 renal
  GI50: 0.409 µM
  TGI: 8.87 µM
U251 CNS
  GI50: 1.51 µM
  TGI: 7.69 µM
UACC-257 melanoma
  GI50: 1.43 µM
  TGI: 7.94 µM
UACC-62 melanoma
  GI50: 1.06 µM
  TGI: 3.11 µM
UO-31 renal
  GI50: 0.338 µM
  TGI: 1.48 µM
